For assay [1], the target named is T1, recombinant human A2A receptors (Homo sapiens, UniProt P29274).
T1 construct: made in house; host or cells: Sf9 insect cells, viral (baculovirus) infection; membranes
Nature of the assay: Radioligand binding assay, A2A receptor. To be noted: recombinant human A2A receptors in Sf9 cell membranes; competition binding. As to the method:
Cell culture and membrane preparation. Sf9 cells were cultured in Grace's medium supplemented with 10% fetal bovine serum, 2.5 μg/ml amphotericin B and 50 μg/ml gentamycin in an atmosphere of 50% N2/50% O2. Viral infection was performed at a density of 2.5×10^6 cells/mL with a multiplicity of infection of two for each virus used. Infected cells were harvested 3 days post-infection and washed twice in insect PBS (PBS pH 6.3). Cells were then resuspended in lysis buffer (20 mM HEPES pH 7.5, 150 mM NaCl, 3 mM MgCl2, 1 mM β-mercaptoethanol (BME), 5 μg/mL leupeptin, 5 μg/mL pepstatin A, 1 μg/mL aprotinin, and 0.1 mM PMSF) and snap frozen for storage at −80° C. Cells were thawed on ice, brought to 30 mL total volume in lysis buffer, and burst by N2 cavitation (600 psi for 20 minutes). A low-speed centrifugation was performed to remove any unlysed cells (1000×g for 10 minutes), followed by a high-speed centrifugation (17,000×g for 30 minutes). The pellet from the final centrifugation was homogenized in buffer containing 20 mM HEPES pH 8, 100 mM NaCl, 1% glycerol, 2 μg/mL leupeptin, 2 μg/mL pepstatin A, 2 μg/mL Aprotinin, 0.1 mM PMSF, and 10 μM GDP using a small glass homogenizer followed by passage through a 26 gauge needle. Membranes were aliquoted, snap frozen in liquid N2, and stored at −80° C. Membranes from cells stably expressing the human A1 AR(CHO K1 cells) or A3 AR (HEK 293 cells) were prepared as described (Robeva et al., 1996).
Radioligand Binding Assays. Radioligand binding to recombinant human A2A receptors in Sf9 cell membranes was performed using either the radiolabeled agonist, ^125I-APE (Luthin et al., 1995) or the radiolabeled antagonist, ^125I-ZM241385 (^125I-ZM). To detect the high affinity, GTPγS-sensitive state of A1 and A3 AR, we used the agonist, ^125I-ABA (Linden et al., 1985; Linden et al., 1993). Binding experiments were performed in triplicate with 5 μg (A2A) or 25 μg (A1 and A3) membrane protein in a total volume of 0.1 mL HE buffer (20 mM HEPES and 1 mM EDTA) withl U/mL adenosine deaminase and 5 mM MgCl2 with or without 50 μM GTPγS. Membranes were incubated with radioligands at room temperature for three hours (for agonists) or two hours (for antagonists) in Millipore Multiscreen® 96-well GF/C filter plates and assays were terminated by rapid filtration on a cell harvester (Brandel, Gaithersburg, Md.) followed by 4×150 μL washes over 30 seconds with ice cold 10 mM Tris-HCl, pH 7.4, 10 mM MgCl2. Nonspecific binding was measured in the presence of 50 μM NECA. Competition binding assays were performed as described (Robeva et al., 1996) using 0.5-1 nM ^125I-APE, ^125I-ZM241385, or ^125I-ABA. Sometimes it is important to change pipette tips following each serial dilution to prevent transfer on tips of potent hydrophobic compounds. The Ki values for competing compound binding to a single site were derived from IC50 values with correction for radioligand and competing compound depletion as described previously (Linden, 1982). • Linden J (1982) Calculating the Dissociation Constant of an Unlabeled Compound From the Concentration Required to Displace Radiolabel Binding by 50%. J Cycl Nucl Res 8: 163-172. • Linden J, Patel A and Sadek S (1985) [^125I]Aminobenzyladenosine, a New Radioligand With Improved Specific Binding to Adenosine Receptors in Heart. Circ Res 56: 279-284. • Linden J, Taylor H E, Robeva A S, Tucker A L, Stehle J H, Rivkees S A, Fink J S and Reppert S M (1993) Molecular Cloning and Functional Expression of a Sheep A3 Adenosine Receptor with Widespread Tissue Distribution. Mol Pharmacol 44: 524-532. • Luthin D R, Olsson R A, Thompson R D, Sawmiller D R and Linden J (1995) Characterization of Two Affinity States of Adenosine A2A Receptors With a New Radioligand, 2-[2-(4-Amino-3-[^125I]Iodophenyl)Ethylamino] Adenosine. Mol Pharmacol 47: 307-313. • Robeva A S, Woodard R, Luthin D R, Taylor H E and Linden J (1996) Double Tagging Recombinant A1- and A2A-Adenosine Receptors With Hexahistidine and the FLAG Epitope. […]

For the next assay, the system named is human neutrophils. Nature of the assay: Neutrophil oxidative activity (luminol enhanced chemiluminescence). The following applies: oxidative activity assay, purified human neutrophils, fMLP-stimulated chemiluminescence, read-out: Functional Activity. The format is cell-based. The source says: Chemiluminescence Methods: Luminol enhanced chemiluminescence, a measure of neutrophil oxidative activity, is dependent upon both superoxide production and mobilization of the granule enzyme myeloperoxidase. The light is emitted from unstable high-energy oxygen species such as hypochlorous acid and singlet oxygen generated by activated neutrophils.
Purified human neutrophils (2×10^6/ml) suspended in Hanks balanced salt solution containing 0.1% human serum albumin (HA), adenosine deaminase (1 U/mL) and rolipram (100 nM) were incubated (37 C) in a water bath for 15 min with or without rhTNF (10 U/ml). Following incubation 100 µL aliquots of the PMN were transferred to wells (White walled clear bottom 96 well tissue culture plates Costar #3670; 2 wells/condition) containing […] and luminol (final concentration […]) with or without adenosine agonist (final agonist concentrations 0.01-1000 nM). The plate was incubated 5 min (37 C) and then fMLP (50 l in HA; final concentration […]) was added to all wells.
Peak chemiluminescence was determined with a Victor 1420 Multilabel Counter in the chemiluminescence mode using the Wallac Workstation software. Data are presented as peak chemiluminescence as percent of activity in the absence of an adenosine agonist. The EC50 was determined using PRISM software. All compounds were tested with PMNs from three separate donors.
Effect of A2A Agonists on Neutrophil Oxidative Activity: f-met-leu-phe (fMLP), luminol, superoxide dismutase, cytochrome C, fibrinogen, adenosine deaminase, and trypan blue were obtained from Sigma Chemical. Ficoll-hypaque was purchased from ICN (Aurora, Ohio), and Cardinal Scientific (Santa Fe, N. Mex.) and Accurate Chemicals and Scientific (Westerbury, N.Y.). Endotoxin (lipopolysaccharide; E. coli K235) was from List Biologicals (Campbell, Calif.). Hanks balanced salt solution (HBSS), and limulus amebocyte lysate assay kit were from BioWittaker (Walkersville, Md.). Human serum albumin (HSA) was from Cutter Biological (Elkhart, Ind.). Recombinant human tumor necrosis factor-α was supplied by Dianippon Pharmaceutical Co. Ltd. (Osaka, Japan). ZM241385 (4-(2-[7-amino-2-(2-furyl)[1,2,4]triazolo[2,3-a][1,3,5]triazin-5-yl amino]ethyl)phenol) was a gift from Simon Poucher, Zeneca Pharmaceuticals, Cheshire, UK. Stock solutions (1 mM and 10 mM in DMSO) were made and stored at −20° C.
Human neutrophil preparation: Purified neutrophils (98% neutrophils and >95% viable by trypan blue exclusion) containing <1 platelet per 5 neutrophils and <50 pg/ml endotoxin (limulus amebocyte lysate assay) were obtained from normal heparinized (10 U/ml) venous blood by a one step Ficoll-hypaque separation procedure (A. Ferrante et al., J. Immunol. Meth., 36, 109 (1980)). […]

T1 sequence (P29274 whole entry): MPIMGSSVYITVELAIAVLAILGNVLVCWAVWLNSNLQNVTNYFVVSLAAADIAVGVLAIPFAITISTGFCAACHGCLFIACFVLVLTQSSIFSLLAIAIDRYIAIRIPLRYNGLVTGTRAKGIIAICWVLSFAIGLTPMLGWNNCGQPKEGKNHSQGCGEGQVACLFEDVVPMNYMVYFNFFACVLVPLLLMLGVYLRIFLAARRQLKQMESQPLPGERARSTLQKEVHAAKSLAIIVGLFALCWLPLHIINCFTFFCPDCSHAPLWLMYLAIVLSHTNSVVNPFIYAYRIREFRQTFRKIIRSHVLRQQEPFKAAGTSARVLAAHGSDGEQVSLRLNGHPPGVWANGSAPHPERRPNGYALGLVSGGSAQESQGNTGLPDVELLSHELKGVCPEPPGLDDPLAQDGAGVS

As to `CN(CC#Cc1nc(N)c2ncn([C@@H]3O[C@H](C(=O)NC4CC4)C(O)C3O)c2n1)C(=O)OCCOCc1ccccc1` (stereo partly drawn) [Example 3, N-Cyclopropyl 2-{3-[2-((benzyloxy)ethoxycarbonyl)(methyl)amino]propyn-1-yl}adenosine-5′-uronamide], in assay [1], the Ki was less than 10 nM. Moreover, in the assay with human neutrophils, the EC50 was less than 10 nM.
Take `COCCCN(CC#Cc1nc(N)c2ncn([C@@H]3O[C@H](C(=O)NC4CC4)C(O)C3O)c2n1)C(=O)OC` (stereo partly drawn) [Example 16, N-Cyclopropyl 2-{3-[4-(methoxycarbonyl(3-methoxypropyl)amino)]propyn-1-yl}adenosine-5′-uronamide]: in assay [1], the Ki lay within 11 to 100 nM. Moreover, the EC50 in the assay on human neutrophils was less than 10 nM.
In the same order, the values of `COC(=O)N(CC#Cc1nc(N)c2ncn([C@@H]3O[C@H](C(=O)NC4CC4)C(O)C3O)c2n1)Cc1ccccc1` (stereo partly drawn) [Example 10, N-Cyclopropyl 2-{3-[4-(benzyl(methoxycarbonyl)amino)]propyn-1-yl}adenosine-5′-uronamide] are 11 to 100 nM and more than 100 nM.
`COC(=O)N(CC#Cc1nc(N)c2ncn([C@@H]3O[C@H](C(=O)NC4CC4)C(O)C3O)c2n1)C1CCC1` (stereo partly drawn) [Example 13, N-Cyclopropyl 2-{3-[4-(cyclobutyl(methoxycarbonyl)amino)]propyn-1-yl}adenosine-5′-uronamide]: the Ki in assay [1] lay in the range of 11 to 100 nM. In addition, the EC50 in the assay on human neutrophils is less than 10 nM.
For `COC(=O)N(CC#Cc1nc(N)c2ncn([C@@H]3O[C@H](C(=O)NC4CC4)C(O)C3O)c2n1)CC1CC1` (stereo partly drawn) [Example 12, N-Cyclopropyl 2-{3-[4-(cyclopropylmethyl(methoxycarbonyl)amino)]propyn-1-yl}adenosine-5′-uronamide] the same measures were less than 10 nM and less than 10 nM.
For `CN(CC#Cc1nc(N)c2ncn([C@@H]3O[C@H](C(=O)NC4CC4)C(O)C3O)c2n1)C(=O)Oc1ccccc1` (stereo partly drawn) [Example 2, N-Cyclopropyl 2-{3-[phenoxycarbonyl(methyl)amino]propyn-1-yl}adenosine-5′-uronamide] the same measures were less than 10 nM and less than 10 nM.
For `COC(=O)N(CC#Cc1nc(N)c2ncn([C@@H]3O[C@H](C(=O)NC4CC4)C(O)C3O)c2n1)CC(C)C` (stereo partly drawn) [Example 9, N-Cyclopropyl 2-{3-[4-(isobutyl(methoxycarbonyl)amino)]propyn-1-yl}adenosine-5′-uronamide] the same measures were less than 10 nM and less than 10 nM.
`CCOCCCN(CC#Cc1nc(N)c2ncn([C@@H]3O[C@H](C(=O)NC4CC4)C(O)C3O)c2n1)C(=O)OC` (stereo partly drawn) [Example 17, N-Cyclopropyl 2-{3-[4-((3-ethoxypropyl)(methoxycarbonyl)amino)]propyn-1-yl}adenosine-5′-uronamide]: the Ki in assay [1] is 11 to 100 nM. Besides, in the assay with human neutrophils, the EC50 is more than 100 nM.
For `COCCN(CC#Cc1nc(N)c2ncn([C@@H]3O[C@H](C(=O)NC4CC4)C(O)C3O)c2n1)C(=O)OC` (stereo partly drawn) [Example 15, N-Cyclopropyl 2-{3-[4-(methoxycarbonyl(2-methoxyethyl)amino)]propyn-1-yl}adenosine-5′-uronamide] the same measures were less than 10 nM and less than 10 nM.
For `CCN(CC#Cc1nc(N)c2ncn([C@@H]3O[C@H](C(=O)NC4CC4)C(O)C3O)c2n1)C(=O)OC` (stereo partly drawn) [Example 6, N-Cyclopropyl 2-{3-[4-(ethyl(methoxycarbonyl)amino)]propyn-1-yl}adenosine-5′-uronamide] the same measures were less than 10 nM and less than 10 nM.
In the same order, the values of `COC(=O)N(C)CC#Cc1nc(N)c2ncn([C@@H]3O[C@H](C(=O)NC4CC4)C(O)C3O)c2n1` (stereo partly drawn) [Example 1, N-Cyclopropyl 2-{3-[methoxycarbonyl(methyl)amino]propyn-1-yl}adenosine-5′-uronamide] are less than 10 nM and less than 10 nM.
For the compound `CCCN(CC#Cc1nc(N)c2ncn([C@@H]3O[C@H](C(=O)NC4CC4)C(O)C3O)c2n1)C(=O)OC` (stereo partly drawn) [Example 7, N-Cyclopropyl 2-{3-[4-(methoxycarbonyl(propyl)amino)]propyn-1-yl}adenosine-5′-uronamide], the Ki in assay [1] is less than 10 nM. Also, the EC50 in the assay on human neutrophils was less than 10 nM.
For `COC(=O)N(CC#Cc1nc(N)c2ncn([C@@H]3O[C@H](C(=O)NC4CC4)C(O)C3O)c2n1)C1CCCC1` (stereo partly drawn) [Example 14, N-Cyclopropyl 2-{3-[4-(cyclopentyl(methoxycarbonyl)amino)]propyn-1-yl}adenosine-5′-uronamide], the Ki in assay [1] was less than 10 nM. For the same compound, in the assay on human neutrophils, the EC50 was less than 10 nM.
Take `COC(=O)N(CC#Cc1nc(N)c2ncn([C@@H]3O[C@H](C(=O)NC4CC4)C(O)C3O)c2n1)C1CC1` (stereo partly drawn) [Example 11, N-Cyclopropyl 2-{3-[4-(cyclopropyl(methoxycarbonyl)amino)]propyn-1-yl}adenosine-5′-uronamide]: the Ki in assay [1] is less than 10 nM. The EC50 in the assay with human neutrophils was less than 10 nM.
Take `CN(CC#Cc1nc(N)c2ncn([C@@H]3O[C@H](C(=O)NC4CC4)C(O)C3O)c2n1)C(=O)Oc1ccc(F)cc1` (stereo partly drawn) [Example 4, N-Cyclopropyl 2-{3-[4-fluorophenoxycarbonyl(methyl)amino]propyn-1-yl}adenosine-5′-uronamide]: the Ki in assay [1] lay in the range of 11 to 100 nM. Further, the EC50 with human neutrophils is less than 10 nM.

As usually defined, the Ki is a measure of affinity in units of concentration, obtained from inhibition or displacement.

The record behind these values is patent US8263762B2, “Alkoxy-carbonyl-amino-alkynyl-adenosine compounds and derivatives thereof as A2AR agonists” (Dogwood Pharmaceuticals, Inc., priority 2009, dated 2012).
